Tests used:
HCT116 cells [1] = experiment: MTT assay, HCT116 cell proliferation; assay type: cell-based, human; details: siRNA 10 nM, CPT-11 3.5 μM, 48 hr, compared to untreated, mock, control siRNA
Procedure: FIG. 8 illustrates HCT116 cell proliferation following AREG/HB-EGF silencing by siRNA and/or Chemotherapy treatment. Cells were transfected with AREG siRNA (10 nM), HB-EGF siRNA (10 nM) or a control siRNA (10 nM). […] Cell proliferation was analysed by MTT assay 48 hr after transfection/chemotherapy
FIG. 28 illustrates HCT116 cell proliferation after treatment with AREG antibody. Cell proliferation was analysed by MTT assay 48 hr after treatment.
FIG. 30 illustrates HCT116 cell proliferation after treatment with AREG antibody. Cell proliferation was analysed by MTT assay 48 hr after treatment.
FIG. 31 illustrates HCT116 cell proliferation after treatment with AREG antibody. Cell proliferation was analysed by MTT assay 48 hr after treatment
FIG. 33 illustrates HCT116 cell proliferation following HB-EGF silencing by siRNA and/or treatment with Anti AREG antibodies (6E11 1E92D8 & 6E11 1E9 106). Cells were transfected with HB-EGF siRNA (50 nM) or a control siRNA (50 nM). Cell proliferation was analysed by MTT assay 72 hr after transfection. […]
Cell viability was assessed by 3-(4,5-dimethylthiazol-2-yl)-2,5-diphenyltetrazolium bromide (MTT, Sigma) assay (Mosmann, T. 1983. J. Immunol. Methods 65:55-63). […] Cell viability was determined by reading the absorbance of each well at 570 nm using a microplate reader (Tecan Sunrise, Biorad, UK).

HCT116 cells [2] = experiment: FACS analysis of cell surface AREG in HCT116 with or without irinotecan; assay type: cell-based, human; details: 2.5 μM for 48 hours; HCT116 and H460 analysed, cell line not given
Procedure: Following treatment cells were stained with AREG monoclonal antibodies and analysed by FACS
After 48 hours cells were washed in PBS and blocked for 20 minutes in Normal Goat Serum. 5×10^5 cells were incubated with AREG antibodies or isotype control for 2 hours and washed in PBS-T. The cells were incubated with a FITC conjugated goat anti-mouse antibody for 1 hour and washed in PBS-T before analysis on BD FACS canto.

HCT 116 +/+ = experiment: Confocal microscopy of AREG expression in HCT116 after CPT-11; assay type: cell-based, human; details: 24 h and 48 h, compared to untreated controls
H460 lung cancer cells = experiment: RT-PCR of AREG RNA in H460 lung cancer cells after chemotherapy; assay type: cell-based; details: 48 hour treatment
Procedure: FIG. 5 illustrates analysis of AREG and beta actin RNA expression in H460 lung cancer cells with/without either a 48 hour CPT11 treatment or 5-Fu treatment. RNA levels were analyzed following 35 cycle of PCR to determine relative differences in expression between treated and untreated samples.
Cells in a log phase of growth were seeded into T75 flask at ˜20% confluence and incubated overnight to allow adherence to the plate. […] Chemotherapy was substituted with saline in control flasks. After different time exposure to chemotherapy the cells were harvested, washed 3 times in PBS and total RNA was isolated using the RNA TAT-60 reagent according to the manufacturer instructions.
Reverse transcription was performed with 2.5 μg of RNA using a High Capacity cDNA Archive kit (Applied Biosystem) according to the instruction of the manufacturer.
Semi quantitative RT-PCR was performed using a PTC 225 Gradient Cycler (MJ Research Incorporated. The PCR mixture, in a final volume of 25 μL, contains 12.5 μL of 2× Biomix (Bioline, UK), 2 μL of primers (10 μmol/L), 1 μL of cDNA and 9.5 μL of dH2O). PCR conditions were initial denaturation step of 95 C for 10 minutes, followed by 35 cycles of 95° C. for 30 sec for denaturation; as annealing step 55° C. for 30 sec; and extension at 72° C. for 90 sec, with a final extension of 72° C. for 10 minutes. […]

[3] = system: HT29 colorectal cancer cells; experiment: RT-PCR of AREG mRNA in HT29 cells after chemotherapy; assay type: cell-based, human; details: IC50 dose, 48 hours
Procedure: FIG. 6 illustrates AREG upregulation following chemotherapeutic challenge in A) HT29, B) HCT116 and C) MDA-MB231 cells. Cells were treated with/without chemotherapy for 48 hours. RT-PCR was performed with 1 μg of total RNA using primer pairs specific for the human AREG gene or GAPDH. The PCR products were separated on 1.5% agarose gel electrophoresis and visualized by ethidium bromide staining.
For Example 2, Total RNA was isolated from cells following the RNA STAT-60 manufacturer's protocol (Biogenesis, Poole, U.K.). RT-PCR was performed with 1 μg of total cell RNA using a Promega ImProm-II™ Reverse Transcription System (Promega, Southhampton, UK). PCR was performed using primer pairs specific for human AREG (Forward 5′-[…]-3′(SEQ ID No:19), Reverse 5′-[…]-3′ (SEQ ID No:20)), human HB-EGF (Forward 5′-[…]-3′(SEQ ID No:21), Reverse 5′-[…]-3′(SEQ ID No:22)), human GAPDH as a control (Forward 5′[…]-3′(SEQ ID No:23), Reverse 5′ […]-3′(SEQ ID NO:24)) and human Beta-actin as a control (Forward 5′-[…]-3′(SEQ ID No:25), Reverse 5′-[…]-3′(SEQ ID No:26)).
The PCR products were separated on 1.5% agarose gel and visualized by ethidium bromide staining.

CCc1c2c(nc3ccc(OC(=O)N4CCC(N5CCCCC5)CC4)cc13)-c1cc3c(c(=O)n1C2)COC(=O)[C@]3(O)CC [CPT-11, irinotecan]
effect on cell viability (MTT) (HCT116 cells [1]): no significant effect | increase in the cell surface expression of AREG (FACS) (HCT116 cells [2]): ≤ 40% | AREG expression levels (confocal microscopy) (HCT 116 +/+): increasing levels of expression at each time point | AREG RNA expression (RT-PCR, 35 cycles) (H460 lung cancer cells): enhanced expression of AREG | AREG mRNA expression (RT-PCR) [3]: up-regulation

— US20100111965A1, “COMBINATION THERAPY” (FUSION ANTIBODIES LIMITED, priority 2006, published 2010)
